system: NCI-H295R; assay: IC50 (antiproliferative, ATP content); settings: 48 h
How it was run: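 Adrenocortical carcinoma cells were plated at 1500 per well in 1536-well plates in serum-free DMEM with ITS supplement, left overnight, then given library compounds by pin transfer at 8 final concentrations spanning 0.6 nM to 46 µM and held 48 h at 37 °C, 5% CO2. ATP was measured as CellTiter-Glo luminescence after 20 min at room temperature and scaled between vehicle and positive-control wells. A four-parameter logistic model was fitted to each series. The IC50 was taken from these fits, and compounds without a concentration response were recorded as above the top dose.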

IC50 [µM] | Structure (SMILES)
> 46 | Clc1ccc(C(Cn2ccnc2)OCc2c(Cl)cccc2Cl)c(Cl)c1 (configuration not stated)
> 46 | O=C2N1[C@]([C@@]([H])2NC(C3=C(C)ON=C3C(C(Cl)=CC=C4)=C4F)=O)([H])SC(C)(C)[C@@H]1[C@@]([O-])=O.[Na+]
> 46 | O=P([O-])(O)C(O)(Cc1cccnc1)P(=O)([O-])O.[Na+].[Na+]
> 46 | CC1=C(CC(=O)O)c2cc(F)ccc2/C1=C\c1ccc(S(C)=O)cc1 (configuration not stated)
> 46 | CCCCC1=NC2(CCCC2)C(=O)N1Cc1ccc(-c2ccccc2-c2nnn[nH]2)cc1
> 46 | CCCN(CCC)CCc1cccc2c1CC(=O)N2
> 46 | CO/N=C(/C(=O)N[C@@H]1C(=O)N2C(C(=O)[O-])=C(COC(C)=O)CS[C@H]12)c1csc(N)n1.[Na+]
> 46 | CN1CCN(C2=Nc3cc(F)ccc3Cc3ccccc32)CC1
> 46 | O=C1[C@H]([C@H](C)C)CC[C@@H](C)C1
> 46 | O=C(/C=C/c1ccc(O)c(O)c1)O[C@@H]1C[C@@](OC(=O)/C=C/c2ccc(O)c(O)c2)(C(=O)O)C[C@@H](O)[C@@H]1O
> 46 | COC1[C@@H](O[C@@H]2O[C@H](C)[C@@H](O[C@H]3C[C@@](C)(O)[C@H](OC(=O)CC(C)C)[C@H](C)O3)[C@H](N(C)C)[C@H]2O)[C@@H](CC=O)C[C@@H](C)[C@@H](O)/C=C/C=C/C[C@@H](C)OC(=O)C[C@H]1OC(C)=O (some centres not stated)
> 46 | CCOC(=O)c1cccnc1
> 46 | FC1=CC2=C(O[C@H]([C@@](N)=O)C[C@@]([C@@]3=O)2NC(N3)=O)C=C1
> 46 | CCN1CCCC1=O
> 46 | O=C1c2ccccc2C(=O)C1c1ccc(F)cc1
> 46 | COc1c(O)cc2c(c1O)[C@@H]1O[C@H](CO)[C@@H](O)[C@H](O)[C@H]1OC2=O.O
> 46 | Cl.NCCCC(N)(C(=O)O)C(F)F (configuration not stated)
> 46 | Cc1ccc(C)c(OCCCC(C)(C)C(=O)O)c1
> 46 | CCc1cccc(CC)c1NC(=O)CN(CC(=O)O)CC(=O)O
> 46 | C[C@H](N)C(=O)N[C@@H](C)P(=O)(O)O
> 46 | CC(=O)Nc1nnc(S(N)(=O)=O)s1
> 46 | Cc1cc(CC(=O)[O-])n(C)c1C(=O)c1ccc(Cl)cc1.[Na+]
> 46 | CN(C)[C@@H]1C(O)=C(C(=O)NCN2CCCC2)C(=O)[C@@]2(O)C(O)=C3C(=O)c4c(O)cccc4[C@@](C)(O)C3C[C@@H]12.Cl (some centres not stated)

IC50 [µM] | Structure (SMILES)
> 46 | CN(C)[C@@H]1C(O)=C(C(N)=O)C(=O)[C@@]2(O)C(O)=C3C(=O)c4c(O)cccc4[C@@](C)(O)[C@H]3[C@H](O)[C@@H]12.Cl
> 46 | CCCNCC(O)COc1ccccc1C(=O)CCc1ccccc1 (configuration not stated)
> 46 | Brc1c(NC2=NCCN2)ccc2nccnc12
> 46 | OCc1ccc(Cl)cc1Cl
> 46 | OC(C)=O.NC(CNC([C@H](CCCNC(N)=N)N[C@]([C@@H]1CCCN1[C@]([C@H](CSSCCC(N[C@@H](CC4=CC=C(O)C=C4)C3=O)=O)NC([C@H](CC(N)=O)NC([C@@H](NC([C@@H](N3)CC2=CC=CC=C2)=O)CCC(N)=O)=O)=O)=O)=O)=O)=O
> 46 | CCCOC(=O)c1ccccc1
> 46 | NC(=O)NNc1ccccc1
> 46 | O=c1cc(O)c(Cl)c[nH]1
> 46 | COc1ccccc1N1CCN(CC(O)COc2cccc3ccccc23)CC1 (configuration not stated)
> 46 | Cc1c(N(C)CS(=O)(=O)[O-])c(=O)n(-c2ccccc2)n1C.[Na+]
> 46 | CN1C(C(=O)Nc2ccccn2)C(=O)c2sc(Cl)cc2S1(=O)=O (configuration not stated)
> 46 | O=[C@](C)[C@@H]3[C@](CC2)(C)[C@](CC3)([H])[C@@]1([H])[C@@]2([H])[C@](CC[C@H](O)C4)(C)C4=CC1
> 46 | Cc1c(Cn2ccnc2)c2ccccc2n1CCC(=O)O
> 46 | CN(C)CCCOc1nn(Cc2ccccc2)c2ccccc12.Cl
> 46 | CCCCCCCCCCCCCCCC(=O)OC[C@H](COP(=O)([O-])OCC[N+](C)(C)C)OC(=O)CCCCCCCCCCCCCCC
> 46 | CC(=O)N=c1sc(S(N)(=O)=O)nn1C
> 46 | Cc1cnc(C(=O)O)c[n+]1[O-]
> 46 | NC[C@H]1O[C@H](O[C@H]2[C@H](O)[C@@H](O[C@H]3O[C@H](CO)[C@@H](O)[C@H](N)[C@H]3O)[C@H](N)C[C@@H]2N)[C@H](N)C[C@@H]1O
> 46 | CC(C)O
> 46 | C[S+](CC[C@H](N)C(=O)O)C[C@H]1O[C@@H](n2cnc3c(N)ncnc32)[C@H](O)[C@@H]1O.[Cl-] (some centres not stated)
> 46 | O=C(NCCNCC(O)COc1ccc(O)cc1)N1CCOCC1 (configuration not stated)
> 46 | C=CC(=O)O
> 46 | CCOc1ccccc1C(N)=O

IC50 [µM] | Structure (SMILES)
> 46 | CC(=O)Nc1ccc(C(=O)O)cc1
> 46 | Nc1nc(=O)c(Br)c(-c2ccccc2)[nH]1
> 46 | CN(C)[C@@H]1C(O)=C(C(N)=O)C(=O)[C@@]2(O)C(O)=C3C(=O)c4c(O)cccc4[C@@](C)(O)[C@H]3C[C@@H]12.Cl
> 46 | Cc1ncc(C[n+]2csc(CCOP(=O)(O)O)c2C)c(N)n1.[Cl-]
> 46 | COc1c2occc2c(OC)c2c(=O)cc(C)oc12
> 46 | CC(C(=O)O)c1ccc(-c2ccccc2)c(F)c1 (configuration not stated)
> 46 | Cc1c(NC(=O)c2cccnc2)c(=O)n(-c2ccccc2)n1C
> 46 | CCOC(=O)c1cnc2cc(OCC(C)C)c(OCC(C)C)cc2c1O
> 46 | Nc1ccc(S(=O)(=O)Nc2cnc3ccccc3n2)cc1
> 46 | O=NN(CCCl)C(=O)NCCCl
> 46 | O=[C@](O)[C@@H]2CC1=C(CN2C([C@H](C)N[C@@H](CCC3=CC=CC=C3)[C@](OCC)=O)=O)C=C(OC)C(OC)=C1.Cl
> 46 | NC(Cc1ccccc1)C(=O)O (configuration not stated)
> 46 | C[C@](N)(Cc1ccc(O)cc1)C(=O)O
> 46 | Cl.Clc1ccc(Cn2c(CN3CCCC3)nc3ccccc32)cc1
> 46 | CN1CCC(OC(=O)C(Oc2ccc(Cl)cc2)Oc2ccc(Cl)cc2)CC1
> 46 | Cc1nc2ccccn2c(=O)c1CCN1CCC(C(=O)c2ccc(F)cc2)CC1
> 46 | NC(=O)NC1NC(=O)NC1=O (configuration not stated)
> 46 | COc1cc2c3cc1Oc1cc(ccc1O)C[C@@H]1c4c(cc(OC)c(O)c4Oc4ccc(cc4)C[C@@H]3N(C)CC2)CC[N+]1(C)C.Cl.[Cl-]
> 46 | O=C([O-])c1cc2cc(Cc3cccnc3)ccc2o1.[Na+]
> 46 | O=C(C1CCCCC1)N1CC(=O)N2CCc3ccccc3C2C1 (configuration not stated)
> 46 | CCOC(=O)c1ccccc1O
> 46 | O=C3N1/C(=C(/C)CS[C@@H]1[C@@H]3NC(=O)[C@H](N)c2ccc(O)cc2)C(O)=O
> 46 | O=C(O)CCCCC(=O)O

Structure (SMILES) | IC50 [µM]
ClC1C(Cl)C(Cl)C(Cl)C(Cl)C1Cl (configuration not stated) | > 46
Oc1cc(Cl)ccc1Oc1ccc(Cl)cc1Cl | > 46
Br.COc1c2c(cc3c1OCO3)CCN(C)C2 | > 46
C[C@]43CCC(=O)\C=C4\CC[C@@H]1[C@@H]3CC[C@]2(C)[C@H](O)CC[C@@H]12 | > 46
C[C@]43CCC(=O)\C=C4\CC[C@@H]1[C@@H]3CC[C@]2(C)[C@@](O)(CC[C@@H]12)C#C | > 46
CC(C)=O | > 46
O=C(C2=CC=CC=C2)O[C@H]1C[C@H](CC3)N(C)[C@H]3[C@H]1[C@@](O)=O | > 46
Cn1c(CCCC(=O)O)nc2cc(N(CCCl)CCCl)ccc21 | > 46
CC(Cc1ccccc1)NC=O (configuration not stated) | > 46
COc1cc(/C=C/C(=O)N2CCN(CC(=O)N3CCCC3)CC2)cc(OC)c1OC.O=C(O)/C=C\C(=O)O | > 46
CCCCCCC(=O)CCCCCC/C=C/C[C@@H](O)[C@H](O)[C@@](N)(CO)C(=O)O | > 46
CNC(=O)NC(O)C(Cl)(Cl)Cl (configuration not stated) | > 46
Nc1ccccc1C(=O)O | > 46
CCN(CCCc1ccccc1)CCCc1ccccc1.O=C(O)CC(O)(CC(=O)O)C(=O)O | > 46
CCCCCN(C)CCC(O)(P(=O)([O-])O)P(=O)(O)O.[Na+] | > 46
CC[C@@H](CO)NC(=O)[C@@H]1C=C2c3cccc4c3c(cn4C)C[C@H]2N(C)C1 | > 46
CC[C@H]1OC(=O)C[C@@H](O)[C@H](C)[C@@H](O[C@@H]2O[C@H](C)[C@@H](O[C@H]3C[C@@](C)(O)[C@@H](O)[C@H](C)O3)[C@H](N(C)C)[C@H]2O)[C@@H](CC=O)C[C@@H](C)C(=O)/C=C/C(C)=C/[C@@H]1CO[C@@H]1O[C@H](C)[C@@H](O)[C@@H](OC)[C@H]1OC.O=C(O)[C@H](O)[C@@H](O)C(=O)O | > 46
CC(C)NCC(O)c1ccccc1Cl.Cl (configuration not stated) | > 46
C[C@@H](Cc1ccccc1)N(C)C | > 46
CC(C)(C)OC(=O)c1ncn2c1[C@@H]1CCCN1C(=O)c1c(Br)cccc1-2 | > 46
CN1C(=S)CN=C(c2ccccc2)c2cc(Cl)ccc21 | > 46
COc1cc(N)c(Cl)cc1C(=O)NC1CCN(Cc2ccccc2)CC1.O=C(O)/C=C\C(=O)O | > 46
O=C1Nc2ccc(Cl)cc2C(c2ccccc2)=NC1O (configuration not stated) | > 46
CC(C)NCC(O)c1ccc(N)c(C#N)c1 (configuration not stated) | > 46
NCCc1ccc(O)cc1 | > 46
COc1ccc2c(c1)N(C[C@H](C)CN(C)C)c1ccccc1S2.O=C(O)/C=C\C(=O)O | > 46
BrCCCBr.CN(C)CCCCCCN(C)C | > 46
S=C(S)N1CCNCC1 | > 46

Reference: the supplement of paper PMC3493320
